The source of these data is patent publication US20230255979A1, “METHODS OF TREATING ACUTE RESPIRATORY DISORDERS” (Bristol-Myers Squibb Company, priority 2020, published 2023).

In experiment [1] the test system is peripheral blood mononuclear cell (PBMCs). Description: Cytokine assessment in PBMCs pretreated with compound, then LPS or SEB/IL-2 treatment. The experiment is classed as cell-based, human. The conditions noted are these: 1 h pretreatment.
In experiment [2] the test system is PBMCs. The experiment in a line: RT-PCR gene expression of cytokines and chemokines in LPS-treated PBMCs from HV. The conditions noted are these: LPS 1.5 hrs then compound 1.5 hrs.
Experiment [3] has as its system macrophages. Description: Cytokine production in LPS-stimulated macrophages. It counts as cell-based, human. The conditions noted are these: compound 4 h or 24 h. On the procedure:
(§1) For Macrophages: monocytes were differentiated into macrophages by stimulation with 50 ng/ml of MCS-F for 5 days followed by treatment with 50 ng/ml Interferon gamma for ˜16 hours. Macrophages were then plated, allowed to acclimate for 24 hours. […] All cells were cultured at 37° C. with 5% CO2 in a humidified incubator. Supernatants were collected for further analysis. Cytokine and chemokine analysis was performed in the supernatants using Magpix magnetic beads.

The subject of experiment [4] is whole blood. The experiment in a line: Pharmacodynamic assessment in MAD study, ex vivo LPS stimulation of whole blood (TruCulture). More on the design: species or system human. Conditions: healthy volunteers, 150 mg, individual level data. On the procedure:
The study consisted of escalating multiple doses in sequential groups. Thirty-seven subjects were enrolled into 5 dose level cohorts (10, 30, 60, 120, and 150 mg).
Each subject participated in a screening phase, a treatment phase (included baseline). Eligible subjects were admitted to the study site on Day −1 and resided at the study site from Day −1 to Day 17. The first dose of study drug was administered on Day 1, under fasted conditions, according to the randomization schedule. The same QD dose was administered for the remainder of the planned treatment schedule (Day 2 to Day 14, inclusive). For each dose level cohort in Part 2, blood samples were collected on Day 1 predose (0-hour), and predose (0-hour) on Days 2, 3, 5, 8, 11, and 14. Blood samples were also collected at approximately the same time of the day as the Days 1 to 14 samples on Days 15, 17, 21, and 28. Subjects were discharged from the study site on Day 17 upon satisfactory safety review and completion of the required study procedures. For all dose level cohorts, subjects returned to the study site for outpatient visits on Day 21 and Day 28. There were no early terminations.
Ex vivo stimulation was performed in whole blood using the TruCulture® assay system (Myriad RBM, Austin, Tex.). […] Briefly, blood (1 ml) was drawn into the LPS-containing TruCulture tubes from each subject on the days listed in the study protocol. The truculture tubes were placed in a 37° C. block thermostat for 24±1 hrs and then frozen at −70° C. Media mixed with plasma was analyzed for TNF-α and other cytokine/chemokine levels. TNF-α inhibition in ex vivo LPS-stimulated blood was measured as percent change in TNF-α levels from baseline. Percent change in other cytokines/chemokines in the ex vivo stimulation assay was also measured with respect to their baseline levels.

Experiment [5] has as its system monocytes. Description: Cytokine production in LPS-stimulated monocytes. The experiment is classed as cell-based, human. On the procedure:
In addition, PBMCs were isolated from buffy coat using Ficoll gradient method and were used for monocyte enrichment without CD16 depletion with the Stem Cell technologies kit (Cat #19058). […] All cells were cultured at 37° C. with 5% CO2 in a humidified incubator.
For Monocytes: PBMCs were isolated from buffy coat using Ficoll gradient method and were used for monocyte enrichment without CD16 depletion with the Stem Cell technologies kit (Cat #19058). […] All cells were cultured at 37° C. with 5% CO2 in a humidified incubator. Supernatant was collected for cytokine and chemokine analysis.
as §1

SMILES strings stand for the structures. Entries after “also recorded” stand apart in the source; their conditions may differ.

`CCOCc1cnc(Cl)nc1Oc1ccc2c(ccc3sc4c(c32)NC[C@@H](C)NC4=O)n1` [Compound I-82]: the “inhibition of TNF-α in PBMCs” value in experiment [1] (LPS stimulation 24 hours, FIG. 1A) is “dose dependent inhibition; also recorded: decreased in a dose-dependent manner”; in experiment [1] (SEB/IL-2 treatment 3 days, FIG. 1B), “dose dependent inhibition; also recorded: decreased in a dose-dependent manner”. For the same molecule, the “inhibition of gene expression of MCP-1” value in experiment [2] (FIG. 5A) was “inhibition of gene expression; also recorded: inhibits gene expression”. Also, the “inhibition of gene expression of IL-6” value in experiment [2] (FIG. 5B) was “inhibition of gene expression; also recorded: inhibits gene expression”. Further, the “inhibition of gene expression of IL-1β” value in experiment [2] (FIG. 5C) was “inhibition of gene expression; also recorded: inhibits gene expression”. For the same molecule, the “inhibition of gene expression of TNF-α” value in experiment [2] (FIG. 6A) is “inhibits gene expression”. The “inhibition of gene expression of GM-CSF” value in experiment [2] (FIG. 6B) is listed as “inhibition of gene expression; also recorded: inhibits gene expression”. Moreover, the “inhibition of gene expression of ZFP36 (TTP)” value in experiment [2] (FIG. 6C) is given as “does not inhibit gene expression”. Further, the “inhibition of IL-6 in macrophages” value in experiment [3] (LPS 3 or 23 hours, FIG. 4A) is recorded as “dose-dependent inhibition; also recorded: inhibits”. For the same molecule, the “inhibition of IL-1β in macrophages” value in experiment [3] (LPS 3 or 23 hours, FIG. 4B) was “dose-dependent inhibition; also recorded: inhibits”. The “inhibition of TNF-α in macrophages” value in experiment [3] (LPS (100 ng/ml) 3 or 23 hours, FIG. 3) is on record as “dose-dependent inhibition; also recorded: inhibits”. The “inhibition of IL-6 following ex vivo LPS stimulation” value in experiment [4] (FIG. 8B) is recorded as “inhibition of IL-6”. Moreover, in experiment [4] (FIG. 8C), the “inhibition of MIP-1A following ex vivo LPS stimulation” value is “inhibition of MIP-1A”. Also, the “inhibition of MIP-1B following ex vivo LPS stimulation” value in experiment [4] (FIG. 8D) is on record as “inhibition of MIP-1B”. In addition, the “inhibition of TNF-α in monocytes” value is listed as “dose dependent inhibition; also recorded: decreased in a dose-dependent manner” in experiment [5] (LPS stimulation 23 hours, FIG. 2) and “dose-dependent inhibition; also recorded: inhibits” in experiment [5] (compound 4 h or 24 h, LPS 3 or 23 hours, FIG. 3). For the same molecule, in experiment [5] (compound 4 h or 24 h, LPS 3 or 23 hours, FIG. 4A), the “inhibition of IL-6 in monocytes” value was “dose-dependent inhibition; also recorded: inhibits”. The “inhibition of IL-1β in monocytes” value in experiment [5] (compound 4 h or 24 h, LPS 3 or 23 hours, FIG. 4B) is “dose-dependent inhibition; also recorded: inhibits”.
